Reference: US20090023799A1, “CRYSTALS OF (2-AMINO-4,5,6,7-TETRAHYDROBENZO[b]THIEN-3-YL)(4-CHLOROPHENYL)METHANONE” (priority 2007, published 2009)
≈ marks a conversion by molar mass, not a printed value. Like-named read-outs stand apart in the source and are kept apart here. Values belong to the compound of their own block, whether it stands above or below them.

Tests used:
[1] = Stability to mechanical grinding/milling (ball-milling, XRPD); type: physicochemical; conditions: XRPD analysis of the milled material
Description: (§1) The crystal forms of T-62 are preferably substantially stable to grinding. Stability to grinding may be assessed by measurement of an appropriate physical property before and after grinding. Where the physical property remains substantially unchanged, substantial stability to grinding is indicated. Suitable physico-chemical properties for measurement include a melting point, a X-ray diffraction pattern, an infra red absorption spectrum and a Raman spectrum, particularly the X-ray diffraction pattern. For example, Form I crystal form of T-62 is stable to mechanical milling and cryogrinding as indicated by XRPD analyses of the milled and ground material, respectively.
Stability to mechanical grinding/milling may be tested, e.g., by employing a small stainless steel cylinder. The cylinder is charged with a weighted amount of a crystal form of T-62 and a stainless steel ball is added, the cylinder is capped and the unit is placed on a Retsch Mixer Mill (Type MM 200) for a total of 3 min at a frequency of 30/s (ball-milling).

[2] = Stability to cryogrinding (XRPD); type: physicochemical; conditions: XRPD analysis of the ground material
Description: as §1
Stability to cryogrinding may be tested, e.g., by employing a polycarbonate freezer mill tube. The tube is charged with a weighted amount of a crystal form of T-62 and a stainless steel rod is added, the tube is capped and the unit is shaken in a SPEX Certiprep 6750 Freezer Mill for a total of 0.6 min in liquid nitrogen at a rate of 10 Hz.

[3] = Approximate solubilities of Form I crystals of T-62 (solvent added until clear solution); type: physicochemical; conditions: RT
Experimental: Solubilities for Form I crystals of T-62 may be estimated based on total solvent used to give a clear solution. A test solvent, either reagent or HPLC (high pressure liquid chromatography) grade, is added in measured aliquots, e.g., 200 or 500 μL, to an accurately weighed sample of T-62 (typically 50 to 90 mg). For some samples, sonication is applied between solvent additions to aid dissolution. Generally, solvent is added until a clear solution is obtained. Actual solubilities may be greater than those shown in Table 7 because of the volume of the solvent portions utilized or a slow rate of dissolution.

[4] = Moisture sorption/desorption analysis; type: physicochemical
Experimental: Moisture sorption/desorption analyses may be performed on a VTI SGA-100 Vapor Sorption Analyzer, or a similar instrument. Sorption and desorption data are collected, e.g., over a range of 5 to 95% relative humidity (RH) at 10% RH intervals under a nitrogen purge. Samples need not to be dried prior to analysis. Equilibrium criteria used for analysis are, e.g., less than 0.01% weight change in 5 min, with a maximum equilibration time of 3 h if the weight criterion is not met. NaCl and PVP may be used as calibration standards.

[5] = Solid-state conversion of crystal forms on heating or humidity; type: physicochemical
adenosine A1 receptors = target: T1, adenosine A1 receptors (Homo sapiens, UniProt P30542); conditions: U.S. Pat. No. 6,248,774 and No. 6,489,356, cited from earlier work
T1 sequence (P30542 1-326): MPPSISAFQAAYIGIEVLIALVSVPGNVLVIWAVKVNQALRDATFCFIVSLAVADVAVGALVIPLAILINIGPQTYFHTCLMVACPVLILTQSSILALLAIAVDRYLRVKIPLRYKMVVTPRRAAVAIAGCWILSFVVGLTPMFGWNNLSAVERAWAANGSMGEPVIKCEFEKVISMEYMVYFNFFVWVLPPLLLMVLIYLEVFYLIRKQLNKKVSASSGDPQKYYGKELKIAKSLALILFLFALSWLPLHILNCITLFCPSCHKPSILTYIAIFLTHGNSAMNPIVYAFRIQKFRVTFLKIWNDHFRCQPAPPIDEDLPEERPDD

SMILES: Nc1sc2c(c1C(=O)c1ccc(Cl)cc1)CCCC2 [Form I, (2-amino-4,5,6,7-tetrahydrobenzo[b]thiophen-3-yl)(4-chlorophenyl)methanone]
Stability to mechanical milling [1]: stable
Stability to cryogrinding [2]: stable
solubility ([3]; water): practically insoluble
solubility ([3]; aqueous with cosolvent or surfactant or cyclodextrin, thermodynamic from solid, ACN:H2O - 1:1, read-out: Solubility): 8.4 mg/mL (≈ 28.8 mM)
solubility ([3]; organic solvent or mixture, thermodynamic from solid, ACN, read-out: Solubility): 11.1 mg/mL (≈ 38 mM)
solubility ([3]; organic solvent or mixture, thermodynamic from solid, CHCl3, read-out: Solubility): 175 mg/mL (≈ 598 mM)
solubility ([3]; organic solvent or mixture, thermodynamic from solid, EtOAc, read-out: Solubility): 67.8 mg/mL (≈ 232 mM)
solubility ([3]; organic solvent or mixture, thermodynamic from solid, EtOH:H2O - 95:5, read-out: Solubility): 12.8 mg/mL (≈ 43.9 mM)
solubility ([3]; organic solvent or mixture, thermodynamic from solid, EtOH, read-out: Solubility): 16.6 mg/mL (≈ 56.9 mM)
solubility ([3]; organic solvent or mixture, thermodynamic from solid, IPA, read-out: Solubility): 13.1 mg/mL (≈ 44.9 mM)
solubility ([3]; organic solvent or mixture, thermodynamic from solid, MEK, read-out: Solubility): 132 mg/mL (≈ 453 mM)
solubility ([3]; organic solvent or mixture, thermodynamic from solid, MeOH:H2O - 95:5, read-out: Solubility): 8.7 mg/mL (≈ 29.8 mM)
solubility ([3]; organic solvent or mixture, thermodynamic from solid, MeOH, read-out: Solubility): 19.8 mg/mL (≈ 67.9 mM)
solubility ([3]; organic solvent or mixture, thermodynamic from solid, N,N-dimethylformamide (DMF), read-out: Solubility): 129 mg/mL (≈ 441 mM)
solubility ([3]; organic solvent or mixture, thermodynamic from solid, THF, read-out: Solubility): 338 mg/mL (≈ 1160 mM)
solubility ([3]; organic solvent or mixture, thermodynamic from solid, acetone, read-out: Solubility): 59.8 mg/mL (≈ 205 mM)
solubility ([3]; organic solvent or mixture, thermodynamic from solid, cyclohexane, read-out: Solubility): 9.8 mg/mL (≈ 33.6 mM)
solubility ([3]; organic solvent or mixture, thermodynamic from solid, di-n-butyl ether, read-out: Solubility): 21.4 mg/mL (≈ 73.3 mM)
solubility ([3]; organic solvent or mixture, thermodynamic from solid, dichloromethane, read-out: Solubility): 85.3 mg/mL (≈ 292 mM)
solubility ([3]; organic solvent or mixture, thermodynamic from solid, diisopropyl ether, read-out: Solubility): 5.9 mg/mL (≈ 20.2 mM)
solubility ([3]; organic solvent or mixture, thermodynamic from solid, dimethylsulfoxide (DMSO), read-out: Solubility): 183 mg/mL (≈ 626 mM)
solubility ([3]; organic solvent or mixture, thermodynamic from solid, dioxane, read-out: Solubility): 74.9 mg/mL (≈ 257 mM)
solubility ([3]; organic solvent or mixture, thermodynamic from solid, hexanes, read-out: Solubility): 5.6 mg/mL (≈ 19.2 mM)
solubility ([3]; organic solvent or mixture, thermodynamic from solid, nitromethane, read-out: Solubility): 12 mg/mL (≈ 41.1 mM)
solubility ([3]; organic solvent or mixture, thermodynamic from solid, octanol, read-out: Solubility): 19.7 mg/mL (≈ 67.5 mM)
solubility ([3]; organic solvent or mixture, thermodynamic from solid, toluene, read-out: Solubility): 45.7 mg/mL (≈ 157 mM)
Crystal form after moisture sorption/desorption analysis [4]: remains the same
Weight gain or loss in moisture sorption/desorption analysis [4]: no significant weight gain or loss
Hygroscopicity ([4]; moisture sorption/desorption analysis): non-hygroscopic

SMILES: Nc1sc2c(c1C(=O)c1ccc(Cl)cc1)CCCC2 [Form II, (2-amino-4,5,6,7-tetrahydrobenzo[b]thiophen-3-yl)(4-chlorophenyl)methanone]
Weight gain in moisture sorption/desorption analysis ([4]; at 95% RH): 0.1%

SMILES: Nc1sc2c(c1C(=O)c1ccc(Cl)cc1)CCCC2 [Form T-62, (2-amino-4,5,6,7-tetrahydrobenzo[b]thiophen-3-yl)(4-chlorophenyl)methanone]
Adverse side effects associated with administration of adenosine (adenosine A1 receptors): devoid of the adverse side effects
Effect on inflammatory and neuropathic pain (adenosine A1 receptors; orally effective): reduce inflammatory and neuropathic pain

Continued, values first:

Crystal form conversion on heating ([5]; heating to about 104° C. under argon purge): converted to the Form I crystal form
Crystal form conversion under high humidity ([5]; high humidity, solvent is lost): converts to Form I crystal form
Crystal form conversion upon heating ([5]; upon heating): converts to Form I crystals
SMILES: Nc1sc2c(c1C(=O)c1ccc(Cl)cc1)CCCC2 [Form III, (2-amino-4,5,6,7-tetrahydrobenzo[b]thiophen-3-yl)(4-chlorophenyl)methanone]

Crystal form conversion on heating ([5]; heating for 2 min at 75° C. in a sealed capillary): converted to the Form IV crystal form
SMILES: Nc1sc2c(c1C(=O)c1ccc(Cl)cc1)CCCC2 [Form IV, (2-amino-4,5,6,7-tetrahydrobenzo[b]thiophen-3-yl)(4-chlorophenyl)methanone]
